Values joined by “and” are separate entries in the source; they are usually repeats but may differ in a detail not shown here. Equal entries are not always repeated.
Legend:
OR52cs V158F = assay: cAMP signaling assay, mutant; format: cell-based, human; details: for cAMP response: Fig.S8b source data, single experiments
Procedure: (§1) For cAMP assay, CRE luciferase assay, and surface ELISA, the full-length OR52cs construct was cloned into the pcDNA3.1 vector. The Lucy signal sequence and FLAG peptide sequence were added to the N-terminus. Mutant constructs were generated by site-directed mutagenesis. For BRET assay, eYFP was added at the C-terminus of OR52cs with a GGGGS linker. Rluc was added to Gα for resonance partner (after L99 for Gαs, and I100 for Gαolf, respectively, with GGGGS linker back and forth).
(§2) Hana3A cells were seeded on 96-well white microplates and transfected with OR52cs or the corresponding mutants and cAMP sensor (Promega). The medium was exchanged with CO2-independent medium (Gibco) supplemented with 0.375 mg ml^−1 D-luciferin (Nanolight) 48 h after infection, and cells were incubated in the dark at 20 °C for 2 h. Basal luminescence was detected using a Tristar 2 LB 942 multimode reader (Berthold) until it reached a plateau. Subsequently, various concentrations of odorants and forskolin (Sigma-Aldrich) were added to each well, and luminescence was measured again. Data were analyzed and plotted using GraphPad Prism 9.4.1.

OR52cs V158F/V209M = assay: cAMP signaling assay, mutant; format: cell-based, human; details: for cAMP response: Fig.S8b source data, single experiments
Procedure: as §1, §2

OR52cs [1] = assay: cAMP signaling assay (cAMP sensor) in Hana3A cells; format: cell-based, human; details: single experiments
Procedure: For cAMP assay, CRE luciferase assay, and surface ELISA, the full-length OR52cs construct was cloned into the pcDNA3.1 vector. The Lucy signal sequence and FLAG peptide sequence were added to the N-terminus. Mutant constructs were generated by site-directed mutagenesis. For BRET assay, eYFP was added at the C-terminus of OR52cs with a GGGGS linker. Rluc was added to Gα for resonance partner (after L99 for Gαs, and I100 for Gαolf, respectively, with GGGGS linker back and forth). […]
as §2

OR52cs R265A = assay: CRE luciferase assay in Hana3A cells, mutant; format: cell-based, human; details: 100 µM carboxylic acid; Fig.S7a, single experiments
Procedure: as §1
48 h after infection, cells were treated with odorants and incubated at 37 °C for 4 h. […] All values were divided by the Renilla luciferase activity to normalize the effect of cell confluence. All data were analyzed using GraphPad Prism 9.4.1.

OR52cs [2] = assay: CRE luciferase assay in Hana3A cells; format: cell-based, human; details: for relative fold of CRE luciferase activity: Fig.S7b, single experiments
Procedure: as §1
Hana3A cells were seeded on 96-well white microplates (SPL) and transfected with plasmids encoding CRE-luciferase, OR52cs or R265^6.59A mutant, Renilla luciferase, RTP1S, and Ric8b at a […] ratio 24 h after seeding. 48 h after infection, cells were treated with odorants and incubated at 37 °C for 4 h. Luminescence was measured using a Tristar 2 LB 942 multimode reader (Berthold). All values were divided by the Renilla luciferase activity to normalize the effect of cell confluence. All data were analyzed using GraphPad Prism 9.4.1.

OR52L1 = test system: OR52L1; set-up: method as in earlier work; details: cited from earlier work
[3] = odorant 9.18274e-8 M, Fig.S8b source data
[4] = odorant 9.18274e-7 M, Fig.S8b source data
[5] = odorant 9.18274e-6 M, Fig.S8b source data
[6] = odorant 3.0303e-5 M, Fig.S8b source data
[7] = odorant 0.0001 M, Fig.S8b source data
[8] = odorant 0.001 M, Fig.S8b source data
[9] = odorant 9.18274e-6 M, Fig.1a source data
[10] = odorant 3.0303e-5 M, Fig.1a source data
[11] = odorant 0.0001 M, Fig.1a source data

Compound | cAMP response (OR52cs V158F; odorant 9.18274e-8 M) | cAMP response (OR52cs V158F; odorant 9.18274e-7 M) | cAMP response (OR52cs V158F; odorant 9.18274e-6 M) | cAMP response (OR52cs V158F; odorant 3.0303e-5 M) | cAMP response (OR52cs V158F; odorant 0.0001 M) | cAMP response (OR52cs V158F; odorant 0.001 M) | cAMP response (OR52cs V158F/V209M; odorant 9.18274e-8 M) | cAMP response (OR52cs V158F/V209M; odorant 9.18274e-7 M) | cAMP response (OR52cs V158F/V209M; odorant 9.18274e-6 M) | cAMP response (OR52cs V158F/V209M; odorant 3.0303e-5 M) | cAMP response (OR52cs V158F/V209M; odorant 0.0001 M) | cAMP response (OR52cs V158F/V209M; odorant 0.001 M) | cAMP response (OR52cs [1]; [3]) | cAMP response (OR52cs [1]; [4]) | cAMP response (OR52cs [1]; [5]) | cAMP response (OR52cs [1]; [6]) | cAMP response (OR52cs [1]; [7]) | cAMP response (OR52cs [1]; [8]) | cAMP response (OR52cs [1]; [9]) | relative fold (luciferase activity over DMSO) (OR52cs R265A) | other results
CCCC(=O)O [Butyrate] | 0.537% and 0.1319% and 1.733% | 0.488% and 0.3268% and 1.1839% | 0.5541% and 0.2838% and 1.329% | 0.4886% and 0.5179% and 1.414% | 0.8581% and 0.2707% and 1.963% | 2.495% and 1.981% and 6.452% | 0.4134% and 1.119% and 0.2589% | 0.6599% and 0.9287% and 0.2324% | 1.238% and 1.86% and 0.7353% | 1.067% and 2.455% and 1.672% | 1.838% and 4.182% and 3.8607% | 12.4605% and 15.8218% and 16.2328% | -0.08428% and 0.1653% and 0.2939% | -0.5369% and 0.4001% and -0.04745% | 0.134% and 0.6883% and 0.4284% | 0.1103% and 0.05302% and 0.2786% | -0.1073% and 0.8927% and 0.1591% | 1.5929% and 1.31% and 1.1069% | – | – | –
CCCCCCCCCC(=O)O [Decanoate, decanoate] | – | – | – | – | – | – | – | – | – | – | – | – | – | – | – | – | – | – | 23.4129 and 25.1996 and 45.8933 | 1.3086 fold and 1.135 fold and 1.747 fold and 1.1432 fold | –
CCCCCCC(=O)O [Heptanoate, heptanoate] | 0.8685% and 0.5114% and 0.9157% | 1.104% and 0.7302% and 1.422% | 3.442% and 2.688% and 4.371% | 27.9975% and 25.6918% and 43.6578% | 66.0899% and 63.5108% and 78.243% | 94.8324% and 85.8407% and 105.113% | 0.3154% and 0.3231% and 0.3938% | 4.347% and 1.257% and 3.311% | 29.4811% and 22.451% and 26.2109% | 75.795% and 74.3485% and 82.8548% | 83.9682% and 91.5635% and 102.817% | 81.746% and 93.3745% and 90.7212% | – | – | – | – | – | – | – | 1.17 fold and 1.091 fold and 1.293 fold and 0.9952 fold | downstream signal / selectivity (in words) (OR52cs V158F; Supplementary Fig. 8): enhanced selectivity; cAMP response (OR52cs [1]; [10]): 56.3478 and 75.8757 and 80.5266; cAMP response (OR52cs [1]; [11]): 81.4095 and 85.4775 and 102.977; cAMP response (OR52cs [1]; odorant 0.001 M, Fig.1a source data): 96.609 and 80.1017 and 111.088
CCCCCC(=O)O [Hexanoate, hexanoate] | 0.5855% and -0.5118% | 0.5361% and -0.697% | 0.7501% and -0.4246% | 1.164% and -0.1819% | 1.41% and -0.4498% | 3.85% and 2.176% | 1.222% and -0.2583% and 0.8037% | 3.048% and 0.3713% and 1.148% | 18.0149% and 8.5338% and 10.0807% | 41.8588% and 26.1015% and 26.6027% | 60.5576% and 50.8798% and 56.2545% | 83.4195% and 80.8044% and 89.7505% | – | – | – | – | – | – | – | 1.1154 fold and 1.251 fold and 1.361 fold and 1.012 fold | response / preference (in words) (OR52cs V158F/V209M; Supplementary Fig. 8): increased responses
CCCCCCCCC(=O)O [Nonanoate, nonanoate] | – | – | – | – | – | – | – | – | – | – | – | – | – | – | – | – | – | – | 36.8538 and 30.3132 and 25.7666 | 1.195 fold and 0.996 fold and 1.289 fold and 1.267 fold | cAMP response (OR52cs [1]; [10]): 65.8721 and 78.3812 and 58.155; cAMP response (OR52cs [1]; [11]): 84.5947 and 88.3315 and 72.5955
CCCCCCCCO [Octanol, octanol] | – | – | – | – | – | – | – | – | – | – | – | – | – | – | – | – | – | – | – | – | activation of OR52cs (in words) (OR52cs [2]; Supplementary Fig. 7): failed to activate; relative fold of CRE luciferase activity (OR52cs [2]; odorant 10 μM): 1.663 fold and 1.557 fold and 1.263 fold and 1.4999 fold; relative fold of CRE luciferase activity (OR52cs [2]; odorant 50 μM): 1.747 fold and 1.809 fold and 1.706 fold and 1.694 fold; relative fold of CRE luciferase activity (OR52cs [2]; odorant 100 μM): 1.917 fold and 1.93 fold and 1.901 fold and 2.061 fold; relative fold of CRE luciferase activity (OR52cs [2]; odorant 250 μM): 1.931 fold and 2.053 fold and 2.136 fold and 2.342 fold; relative fold of CRE luciferase activity (OR52cs [2]; odorant 500 μM): 1.887 fold and 2.082 fold and 2.24 fold and 2.823 fold
CCCCC(=O)O [Pentanoate, pentanoate] | 0.9264% and 0.2953% and 1.001% | 0.9435% and 0.3179% and 1.755% | 1.032% and 0.4577% and 1.961% | 1.125% and 0.847% and 2.468% | 1.499% and 1.023% and 3.422% | 5.439% and 4.505% and 7.762% | -0.5993% and 0.7689% and 1.106% | -0.2116% and 0.634% and 0.6548% | 0.981% and 2.2804% and 2.576% | 3.113% and 5.861% and 4.955% | 9.203% and 15.4507% and 12.8173% | 39.0499% and 48.7069% and 47.2503% | -0.162% and 0.6359% and -0.04254% | 0.07645% and 0.3953% and 0.2459% | 0.2758% and 0.7357% and 0.01532% | 0.2715% and 0.6901% and 0.4212% | 0.1615% and 1.39% and 0.4292% | 2.769% and 2.642% and 1.705% | – | – | response of OR52L1 (in words) (OR52L1): responsive
CCC(=O)O [Propionate, propionate] | 0.2434% and 0.9095% | -0.2446% and -2.828% | 0.996% and -2.758% | -1.498% and -2.916% | -0.9959% and -2.168% | 2.021% and 1.439% | 0.9618% and -0.01314% and -0.2398% | 1.572% and -0.593% and -0.7182% | 1.935% and -0.7307% and 0.6877% | 2.83% and 0.05137% and 0.2753% | 2.508% and 0.3655% and 0.1006% | 6.973% and 2.2608% and 3.165% | -0.2092% and 0.1117% and 0.5205% | -0.1831% and 0.1609% and 0.123% | -0.2867% and 0.1185% and 0.09817% | 0.2368% and 0.05491% and -0.002619% | -0.3215% and 0.04237% and 0.3227% | 0.5115% and 1.283% and 1.204% | – | – | –
CCCCCCCCCCC(=O)O [Undecanoate, undecanoate] | – | – | – | – | – | – | – | – | – | – | – | – | – | – | – | – | – | – | 17.2544 and 14.2907 and 24.4976 | 1.911 fold and 1.478 fold and 1.422 fold and 1.276 fold | –

— article PMC10703812, “Understanding the molecular mechanisms of odorant binding and activation of the human OR52 family” (Nature Communications, 2023)
